# Laboratory results: patent US20140050720A1, “ULTRALONG COMPLEMENTARITY DETERMINING REGIONS AND USES THEREOF” (THE SCRIPPS RESEARCH INSTITUTE, priority 2012, published 2014)
# What was measured:
# Mouse NFS-60 cells = assay: Proliferation assay on mouse NFS-60 cells (AlamarBlue); type: cell-based; conditions: 72 hours
# Procedure: Mouse NFS-60 cells were obtained from American Type Culture Collection (ATCC), VA, and cultured in RPMI-1640 medium supplemented with 10% fetal bovine serum (FBS), 0.05 mM 2-mercapoethanol and 62 ng/ml human macrophage colony stimulating factor (M-CSF). For proliferation assay, mouse NFS-60 cells were washed three times with RPMI-1640 medium and resuspended in RPMI-1640 medium with 10% FBS and 0.05 mM 2-mercapoethanol at a density of 1.5×10^5 cells/ml. In 96-well plates, 100 μl of cell suspension was added into each well, followed by the addition of varied concentrations of bGCSF, BLV1H12 antibody, and the immunoglobulin constructs described herein, Equal volume of PBS buffer was added into the control wells. The plates were incubated at 37° C. in a 5% CO2 incubator for 72 hours. Cells were then treated with AlamarBlue (Invitrogen) ( 1/10 volume of cell suspension) for 4 hours at 37° C. Fluorescence at 595 nm for each well was read to indicate the cell viability.
# mice neutrophils = assay: Neutrophils counts in mice; type: in vivo; conditions: mice blood, 10th day post-injection, neutrophils among white blood cells
# Procedure: On the 10th day after injection of BLV1H12-bGCSF fusion antibodies into mice for PK study, blood samples were drawn from the mice and stained using the Diff Quick Staining Kit (Thermo Fisher Scientific, IL). Neutrophils and white blood cells were counted under microscope and the percentages of neutrophils were analyzed. FIGS. 12A-12B and Table 12 show proliferative activities of BLV1H12-bGCSF fusion antibodies on mice neutrophils that are blood stained and counted at the 10th day post-injection.
# [1] = Pharmacokinetics of BLV1H12-bGCSF fusion antibodies in mice; type: in vivo; conditions: BALB/c mice, 70 μg injected
# Procedure: For PK study in mice, 70 μg of the immunoglobulin constructs described herein were injected into 3 BALB/c mice per group. Blood samples were drawn from time 0 to 14 days with extended intervals and analyzed by ELISA using anti-human IgG Fc antibody with horseradish peroxidase (HRP) labeled (KPL) and anti-6×His antibody with HRP labeled (Clontech). Data were normalized by taking maximal concentration at the first time point (30 min).
# Human mPB CD34+ cells = assay: Proliferative activity on human granulocyte progenitors (flow cytometry); type: cell-based; conditions: 7 days
# Procedure: Human mPB CD34^+ cells were purchased from AllCells. Cells were resuspended in HSC expansion medium (StemSpan SFEM, StemCell Technologies) supplemented with 1× antibiotics and the following recombinant human cytokines thrombopoietin, IL6, Flt3 ligand, and stem cell factor (100 ng/mL, R & D Systems), then plated in 96-well plates (1000 cells per well), with varied concentrations of BLV1H12-bGCSF fusion antibodies. Cells were cultured for 7 days at 37° C. in a 5% CO2 incubator, then analyzed by flow cytometry to measure cell number and expression of CD45ra and CD41. Cells were stained in staining medium (HBSS supplemented with 2% FBS and 2 mM EDTA) at 4° C. for 1 h with PECy7 anti-CD45ra and eFluor 450 anti-CD41 (eBiosciences), then washed with staining medium and analyzed. Multicolor analysis for cell phenotyping was performed on a LSR II flow cytometer (Becton Dickinson). FIGS. 10A-10E and Tables 9-10 show the human granulocyte progenitor cell proliferative activities of the Ab-GCSF fusion antibodies.
substance,measurement,setting,value
"Ab-bGCSF L0: bovine G-CSF replacing the knob domain of BLV1H12 CDR3H, no linker (n=0); DNA SEQ ID NO: 4","F.I. (AlamarBlue fluorescence at 595 nm, cell viability)",Mouse NFS-60 cells; 0.09876 ng/mL,1328
same,"F.I. (AlamarBlue fluorescence at 595 nm, cell viability)",Mouse NFS-60 cells; 0.29627 ng/mL,1436
same,"F.I. (AlamarBlue fluorescence at 595 nm, cell viability)",Mouse NFS-60 cells; 0.88881 ng/mL,1734.765
same,"F.I. (AlamarBlue fluorescence at 595 nm, cell viability)",Mouse NFS-60 cells; 2.66642 ng/mL,2189
same,"F.I. (AlamarBlue fluorescence at 595 nm, cell viability)",Mouse NFS-60 cells; 7.99927 ng/mL,2680
same,"F.I. (AlamarBlue fluorescence at 595 nm, cell viability)",Mouse NFS-60 cells; 23.9978 ng/mL,2899
same,"F.I. (AlamarBlue fluorescence at 595 nm, cell viability)",Mouse NFS-60 cells; 71.9934 ng/mL,2921
same,"F.I. (AlamarBlue fluorescence at 595 nm, cell viability)",Mouse NFS-60 cells; 215.9802 ng/mL,3416
same,Percentage of Neutrophil,mice neutrophils,25.05
same,"Percentage (normalized to maximal concentration at the first time point, 30 min)",[1]; day 0.021,100.00%
same,"Percentage (normalized to maximal concentration at the first time point, 30 min)",[1]; day 0.042,91.12%
same,"Percentage (normalized to maximal concentration at the first time point, 30 min)",[1]; day 0.083,91.24%
same,"Percentage (normalized to maximal concentration at the first time point, 30 min)",[1]; day 0.125,91.56%
same,"Percentage (normalized to maximal concentration at the first time point, 30 min)",[1]; day 0.250,61.22%
same,"Percentage (normalized to maximal concentration at the first time point, 30 min)",[1]; day 1.000,44.22%
same,"Percentage (normalized to maximal concentration at the first time point, 30 min)",[1]; day 2.000,36.36%
same,"Percentage (normalized to maximal concentration at the first time point, 30 min)",[1]; day 3.000,27.38%
same,"Percentage (normalized to maximal concentration at the first time point, 30 min)",[1]; day 8.000,11.53%
same,"Percentage (normalized to maximal concentration at the first time point, 30 min)",[1]; day 10.000,12.44%
same,"Percentage (normalized to maximal concentration at the first time point, 30 min)",[1]; day 14.000,14.35%
same,Number of CD45RA− CD41−,Human mPB CD34+ cells; 0.14225 ng/mL,2601
same,Number of CD45RA− CD41−,Human mPB CD34+ cells; 0.42676 ng/mL,2253
same,Number of CD45RA− CD41−,Human mPB CD34+ cells; 3.84088 ng/mL,4399
same,Number of CD45RA− CD41−,Human mPB CD34+ cells; 11.52263 ng/mL,7262
same,Number of CD45RA− CD41−,Human mPB CD34+ cells; 34.5679 ng/mL,9902
same,Number of CD45RA− CD41−,Human mPB CD34+ cells; 103.7037 ng/mL,11500
same,Number of CD45RA− CD41−,Human mPB CD34+ cells; 311.11111 ng/mL,11500
same,Number of CD45RA− CD41−,Human mPB CD34+ cells; 933.33333 ng/mL,11900
same,Number of CD45RA− CD41−,Human mPB CD34+ cells; 2800 ng/mL,12100
Ab-bGCSF L1: bovine G-CSF replacing the knob domain of BLV1H12 CDR3H with GGGGS linkers on both ends; DNA SEQ ID NO: 5,"F.I. (AlamarBlue fluorescence at 595 nm, cell viability)",Mouse NFS-60 cells; 0.09808 ng/mL,1412.387
same,"F.I. (AlamarBlue fluorescence at 595 nm, cell viability)",Mouse NFS-60 cells; 0.29424 ng/mL,1654.776
same,"F.I. (AlamarBlue fluorescence at 595 nm, cell viability)",Mouse NFS-60 cells; 0.88272 ng/mL,2082.718
same,"F.I. (AlamarBlue fluorescence at 595 nm, cell viability)",Mouse NFS-60 cells; 2.64816 ng/mL,2550.674
same,"F.I. (AlamarBlue fluorescence at 595 nm, cell viability)",Mouse NFS-60 cells; 7.94449 ng/mL,2997.807
same,"F.I. (AlamarBlue fluorescence at 595 nm, cell viability)",Mouse NFS-60 cells; 23.83346 ng/mL,3277.812
same,"F.I. (AlamarBlue fluorescence at 595 nm, cell viability)",Mouse NFS-60 cells; 71.50039 ng/mL,3308.383
same,"F.I. (AlamarBlue fluorescence at 595 nm, cell viability)",Mouse NFS-60 cells; 214.50117 ng/mL,3868.075
same,Percentage of Neutrophil,mice neutrophils,25.32
same,"Percentage (normalized to maximal concentration at the first time point, 30 min)",[1]; day 0.021,100.00%
same,"Percentage (normalized to maximal concentration at the first time point, 30 min)",[1]; day 0.042,102.12%
same,"Percentage (normalized to maximal concentration at the first time point, 30 min)",[1]; day 0.083,104.03%
same,"Percentage (normalized to maximal concentration at the first time point, 30 min)",[1]; day 0.125,101.71%
same,"Percentage (normalized to maximal concentration at the first time point, 30 min)",[1]; day 0.250,93.90%
same,"Percentage (normalized to maximal concentration at the first time point, 30 min)",[1]; day 1.000,59.26%
same,"Percentage (normalized to maximal concentration at the first time point, 30 min)",[1]; day 2.000,56.66%
same,"Percentage (normalized to maximal concentration at the first time point, 30 min)",[1]; day 3.000,39.09%
same,"Percentage (normalized to maximal concentration at the first time point, 30 min)",[1]; day 8.000,22.21%
same,"Percentage (normalized to maximal concentration at the first time point, 30 min)",[1]; day 10.000,21.15%
same,"Percentage (normalized to maximal concentration at the first time point, 30 min)",[1]; day 14.000,21.41%
same,Number of CD45RA− CD41−,Human mPB CD34+ cells; 0.30483 ng/mL,4070
same,Number of CD45RA− CD41−,Human mPB CD34+ cells; 0.91449 ng/mL,3601
same,Number of CD45RA− CD41−,Human mPB CD34+ cells; 2.74348 ng/mL,4303
same,Number of CD45RA− CD41−,Human mPB CD34+ cells; 8.23045 ng/mL,6404
same,Number of CD45RA− CD41−,Human mPB CD34+ cells; 24.69136 ng/mL,9122
same,Number of CD45RA− CD41−,Human mPB CD34+ cells; 74.07407 ng/mL,11200
same,Number of CD45RA− CD41−,Human mPB CD34+ cells; 222.22222 ng/mL,11000
same,Number of CD45RA− CD41−,Human mPB CD34+ cells; 666.66667 ng/mL,11400
same,Number of CD45RA− CD41−,Human mPB CD34+ cells; 2000 ng/mL,11400
same,Number of CD45RA− CD41−,Human mPB CD34+ cells; 6000 ng/mL,13200
